According to US6809110B2 (Hoffmann-La Roche Inc., priority 2002, dated 2004):

Row | SMILES | melting point
1 | COc1cc(OC)cc(-c2nc(CCOc3ccc(CC(OC)C(=O)O)c4sccc34)c(C)s2)c1 (racemic) [Example 84, [rac]-3-(4-{2-[2-(3,5-Dimethoxy-phenyl)-5-methyl-thiazol-4-yl]-ethoxy}-benzo[b]thiophen-7-yl)-2-methoxy-propionic acid] | 156 to 157 °C
2 | COc1cc(OC)cc(-c2nc(CCOc3ccc(CC(OC(C)C)C(=O)O)c4sccc34)c(C)s2)c1 (racemic) [Example 85, [rac]-3-(4-{2-[2-(3,5-Dimethoxy-phenyl)-5-methyl-thiazol-4-yl]-ethoxy}-benzo[b]thiophen-7-yl)-2-isopropoxy-propionic acid] | 150 to 152 °C
3 | CCCOC(Cc1ccc(OCCc2nc(-c3ccc(C(C)(C)C)cc3)sc2C)c2ccsc12)C(=O)O (racemic) [Example 87, [rac]-3-(4-{2-[2-(4-tert-Butyl-phenyl)-5-methyl-thiazol-4-yl]-ethoxy}-benzo[b]thiophen-7-yl)-2-propoxy-propionic acid] | 76 °C
4 | CCOC(Cc1ccc(OCCc2nc(-c3cc(OC)cc(OC)c3)sc2C)c2ccccc12)C(=O)O (racemic) [Example 88, [rac]-3-(4-{2-[2-(3,5-Dimethoxy-phenyl)-5-methyl-thiazol-4-yl]-ethoxy}-naphthalen-1-yl)-2-ethoxy-propionic acid] | 133 to 135 °C
5 | CCOC(Cc1ccc(OCc2sc(-c3ccc(C(F)(F)F)cc3)nc2C)c2ccccc12)C(=O)O (racemic) [Example 137, [rac]-2-Ethoxy-3-{4-[4-methyl-2-(4-trifluoromethyl-phenyl)-thiazol-5-ylmethoxy]-naphthalen-1-yl}-propionic acid] | 186 to 188 °C

More lines, now with the values ahead:

Row | melting point | SMILES
6 | 75 to 85 °C | Cc1sc(-c2ccc(C(C)(C)C)cc2)nc1CCOc1ccc(CC(OC(C)C)C(=O)O)c2ccccc12 (racemic) [Example 86, [rac]-3-(4-{2-[2-(4-tert-Butyl-phenyl)-5-methyl-thiazol-4-yl]-ethoxy}-naphthalen-1-yl)-2-isopropoxy-propionic acid]
7 | 190 to 192 °C | COC(Cc1ccc(OCc2sc(-c3ccc(C(F)(F)F)cc3)nc2C)c2ccccc12)C(=O)O (racemic) [Example 136, [rac]-2-Methoxy-3-{4-[4-methyl-2-(4-trifluoromethyl-phenyl)-thiazol-5-ylmethoxy]-naphthalen-1-yl}-propionic acid]
8 | 140 to 142 °C (dec.) | COC(Cc1ccc(OCc2sc(-c3ccc(C(F)(F)F)cc3)nc2C)c2ccsc12)C(=O)O (racemic) [Example 138, [rac]-2-Methoxy-3-{4-[4-methyl-2-(4-trifluoromethyl-phenyl)-thiazol-5-ylmethoxy]-benzo[b]thiophen-7-yl}-propionic acid]
9 | 178 to 179 °C | CCOC(Cc1ccc(OCc2sc(-c3ccc(C(F)(F)F)cc3)nc2C)c2ccsc12)C(=O)O (racemic) [Example 139, [rac]-2-Ethoxy-3-{4-[4-methyl-2-(4-trifluoromethyl-phenyl)-thiazol-5-ylmethoxy]-benzo[b]thiophen-7-yl}-propionic acid]
